Experimental data from patent US20040214799A1, “Cancerous metastasis inhibitors containing carbacyclic phosphatidic acid derivatives” (priority 2001, published 2004).
“And” between values parts separate entries of the source, which are not always exact repeats. Equal entries are not always repeated.

Key:
[1] = tested on: MM1 cells; experiment: Effect on the proliferation of MM1 cells; assay type: cell-based, rat; conditions: 12.5 μM or 25 μM cPA, 10% FBS, 24 hours and 72 hours
Experimental: 12.5 μM and 25 μM cPA were added to media containing 10% FBS, and then the cells were cultured under conditions of 37° C. and 5% CO2 for 24 hours and 72 hours. The number of the MM1 cells was counted using a hemocytometer.

[2] = tested on: Mouse malignant melanoma B16-F0; experiment: B16 melanoma hematogenous lung metastasis model; assay type: in vivo; conditions: for invasion of lymphocytes into metastatic lesions observed in cases: animals with metastatic lesions; for Metastatic nodules, Abdominal cavity Adipose tissue / Metastatic nodules, Abdominal cavity Adrenal gland / Metastatic nodules, Abdominal cavity Diaphragm / Metastatic nodules, Abdominal cavity Kidney / Metastatic nodules, Abdominal cavity Ovary / Metastatic nodules, Abdominal cavity Spleen / Metastatic nodules, Thoracic cavity / Metastatic nodules, Tissue around glandual clitoris: autopsy day 14, individual animals; for Number of lung tumor nodules, Range (mininum-maximum) / Number of mice having lung tumor nodules: day 14, N 6; for Number of lung tumor nodules: day 14, mean ± S.D.; for Number of lung tumor nodules / Number of mice having metastatic lesions: N 6; for Number of mice having metastatic lesions / Findings: Invasion of lymphocytes into melanoma metastatic lesion: lung histopathology; for Findings: Invasion of lymphocytes into melanoma metastatic lesion: individual animals; for Number of metastatic lesions per section, Large size: major diameter 0.65 mm ≦ and <1.3 mm; for Number of metastatic lesions per section, Large size / Number of metastatic lesions per section, Small size / Number of metastatic lesions per section, Total: mean ± S.D.; for Number of metastatic lesions per section, Small size: major diameter <0.65 mm, left lobe and posterior lobe; for Metastatic nodules, Abdominal cavity Adipose tissue: key: −: Absent; +: Present; for Metastatic nodules, Abdominal cavity Adrenal gland: key: −: Absent; +: Present; for Metastatic nodules, Abdominal cavity Diaphragm: key: −: Absent; +: Present; for Metastatic nodules, Abdominal cavity Kidney: key: −: Absent; +: Present; for Metastatic nodules, Abdominal cavity Ovary: key: −: Absent; +: Present; for Metastatic nodules, Abdominal cavity Spleen: key: −: Absent; +: Present; for Metastatic nodules, Thoracic cavity: key: −: Absent; +: Present; for Metastatic nodules, Tissue around glandual clitoris: key: −: Absent; +: Present
Experimental: cPA-19 and cPA-20 were used as test substances. 0.1 w/v % BSA/PBS which was prepared by dissolving Albumin, Bovine [essentially Fatty Acid Free] (BSA, Lot No. 89H7604, Sigma chemical company) in Ca^2+ and Mg^2+ free PBS (pH 7.2), was used as a medium After preparation, the solution was sterilized by filtration using a filter (0.22 μm, Millipore). Preparation was performed when used. cPA-5 was used as a positive control substance.
A medium was added in a volume required for a test substance or a positive control substance. Dissolution was performed by ultrasonication, thereby preparing a 0.16 mg/mL solution. The 0.16 mg/mL solution containing a test substance was diluted with a medium, thereby preparing 0.08 and 0.02 mg/mL solutions. All mixtures were prepared when used.
Mice were purchased from CHARLES RIVER JAPAN. INC. The line employed herein was C57BL/6NCrj (sexuality: female). The number of animals kept in stock was 60, and the age of these animals when kept in stock was 4 weeks. […] The environmental conditions for the test system were as follows:
Mouse malignant melanoma B16-F0 was used as a tumor cell. The cell was purchased from Dainippon Pharmaceutical Co., Ltd.
Dulbecco's Modified Eagle's Media containing 10% feral bovine serum and kanamycin were used for culture. […] A medium was added to stop the action of trypsin while pipetting, thereby preparing a cell suspension. The suspension was diluted by one-tenth with a medium for culturing, followed by subculturing until it reached a volume sufficient for grafting.
A cell suspension was prepared by the same technique as the subculture method. Specifically, the cells were washed with a Ca^2+ and Mg^2+ free phosphate buffer [PBS(−)], and then harvested. The harvested cells were suspended in a 10 mL of PBS(−), thereby preparing a cell suspension. The number of cells in the cell suspension was measured to obtain the total cell number. 50 μL of the cell suspension, 100 μL of 0.4% trypan blue liquid and 100 μL of PBS(−) were mixed, and then viable count was measured. The survival rate of the cells was calculated from the viable count and total cell number.
Based on the body weight on the day of the administration of the test substance, mice were grouped into 8 test groups according to the stratified continuous randomization method as shown in Table 2 below.
The mixture was administered via the caudal vein. The number of grafted cells was 5×10^5 cells/body. The dose of the test substance was 0.001, 0.004 or 0.008 mg/body, and the dose of the positive control substance was 0.008 mg/body.
On day 14 after the administration of the test substance, blood was collected from the posterior portion of the abdominal vena cava under isoflurane anesthesia. After the mice were sacrificed by blood-letting, the presence or absence of intrapleural and intraperitoneal metastatic nodules was confirmed. Lungs were extracted, and then fixed with a 10% neutral buffered formalin solution. The number of nodules resulting from lung metastasis was measured under a stereoscopic microscope (magnification: 10 times).
After the measurement of the number of nodules resulting from lung metastasis, samples were paraffin-embedded, and then thin sections were prepared. Hematoxylin eosinic-stained samples were prepared from these sections. The number of metastatic lesions in the certain portions of the left lobe and the posterior lobe was measured, and then the lesions were sorted by size. On the basis of the diameter (0.65 mm) of an object lens (×40), metastatic lesions with major diameters of less than 0.65 mm were classified as having a small size, and those with major diameters of between 0.65 mm or more and less than 1.30 mm were classified as having a large size. Furthermore, the degree of invasion of lymphocytes into metastatic lesions was confirmed qualitatively.
The representative value of each test group was denoted as mean±standard deviation (mean±S.D.). Differences in mean values were examined as follows.

[3] = 0.001 mg/body i.v., autopsy, 6 mice
[4] = 0.004 mg/body i.v., autopsy, 6 mice
[5] = 0.008 mg/body i.v., autopsy, 6 mice

Substance: carba-Ole-cPA [cPA-19]
- effect on MM1 cell proliferation (in words) [1]: showed proliferation suppressing activity
- invasion of lymphocytes into metastatic lesions observed in cases ([2]; 0.001 mg/body i.v.): 1 out of 6
- Metastatic nodules, Abdominal cavity Adipose tissue ([2]; 0.001 mg/body i.v.): + and − (5×)
- Metastatic nodules, Abdominal cavity Adrenal gland ([2]; 0.001 mg/body i.v.): + and − (5×)
- Metastatic nodules, Abdominal cavity Diaphragm ([2]; 0.001 mg/body i.v.): −
- Metastatic nodules, Abdominal cavity Kidney ([2]; 0.001 mg/body i.v.): + (2×) and − (4×)
- Metastatic nodules, Abdominal cavity Ovary ([2]; 0.001 mg/body i.v.): + (2×) and − (4×)
- Metastatic nodules, Abdominal cavity Spleen ([2]; 0.001 mg/body i.v.): − (5×) and +
- Metastatic nodules, Thoracic cavity ([2]; 0.001 mg/body i.v.): − (5×) and +
- Metastatic nodules, Tissue around glandual clitoris ([2]; 0.001 mg/body i.v.): −
- cases with metastatic nodules in adipose tissue [2, 3]: 1 case
- cases with metastatic nodules in the adrenal gland [2, 3]: 1 case
- cases with metastatic nodules in the kidney [2, 3]: 2 cases
- cases with metastatic nodules in the ovary [2, 3]: 2 cases
- cases with metastatic nodules in the spleen [2, 3]: 1 case
- cases with metastatic nodules in the thoracic cavity [2, 3]: 1 case
- Number of lung tumor nodules, Range (mininum-maximum) ([2]; 0.001 mg/body i.v.): 37-66
- Number of mice having lung tumor nodules ([2]; 0.001 mg/body i.v.): 6
- Number of lung tumor nodules ([2]; 0.001 mg/body i.v.): 54 ± 12
- Number of mice having metastatic lesions ([2]; 0.001 mg/body i.v.): 6
- Findings: Invasion of lymphocytes into melanoma metastatic lesion ([2]; 0.001 mg/body i.v.): − (5×) and +
- Number of metastatic lesions per section, Large size ([2]; 0.001 mg/body i.v.): 0.7 ± 0.8
- Number of metastatic lesions per section, Small size ([2]; 0.001 mg/body i.v.): 3.0 ± 1.3
- Number of metastatic lesions per section, Total ([2]; 0.001 mg/body i.v.): 3.7 ± 1.8
- number of metastatic nodules of B16-F0 in the lungs versus medium group (in words) ([2]; 0.004 mg/body i.v.): significant decrease in the number of metastatic nodules
- invasion of lymphocytes into metastatic lesions observed in cases ([2]; 0.004 mg/body i.v.): no invasions were observed in 2 cases
- Metastatic nodules, Abdominal cavity Adipose tissue ([2]; 0.004 mg/body i.v.): − (5×) and +
- Metastatic nodules, Abdominal cavity Adrenal gland ([2]; 0.004 mg/body i.v.): − (5×) and +
- Metastatic nodules, Abdominal cavity Diaphragm ([2]; 0.004 mg/body i.v.): −
- Metastatic nodules, Abdominal cavity Kidney ([2]; 0.004 mg/body i.v.): −
- Metastatic nodules, Abdominal cavity Ovary ([2]; 0.004 mg/body i.v.): −
- Metastatic nodules, Abdominal cavity Spleen ([2]; 0.004 mg/body i.v.): + and − (5×)
- Metastatic nodules, Thoracic cavity ([2]; 0.004 mg/body i.v.): −
- Metastatic nodules, Tissue around glandual clitoris ([2]; 0.004 mg/body i.v.): −
- cases with metastatic nodules in adipose tissue [2, 4]: 1 case
- cases with metastatic nodules in the adrenal gland [2, 4]: 1 case
- cases with metastatic nodules in the spleen [2, 4]: 1 case
- metastatic nodules in the thoracic cavity [2, 4]: no metastatic nodules were observed
- Number of lung tumor nodules, Range (mininum-maximum) ([2]; 0.004 mg/body i.v.): 2-6
- Number of mice having lung tumor nodules ([2]; 0.004 mg/body i.v.): 6
- Number of lung tumor nodules ([2]; 0.004 mg/body i.v.): 4 ± 2
- Number of mice having metastatic lesions ([2]; 0.004 mg/body i.v.): 2 &
- Findings: Invasion of lymphocytes into melanoma metastatic lesion ([2]; 0.004 mg/body i.v.): −
- Number of metastatic lesions per section, Large size ([2]; 0.004 mg/body i.v.): 0 ± 0!!
- Number of metastatic lesions per section, Small size ([2]; 0.004 mg/body i.v.): 0.3 ± 0.5
- Number of metastatic lesions per section, Total ([2]; 0.004 mg/body i.v.): 0.3 ± 0.5!
- metastasis / number of metastatic nodules in the lungs versus medium group (in words) ([2]; 0.008 mg/body i.v.): almost completely suppressed metastasis
- Metastatic nodules, Abdominal cavity Adipose tissue ([2]; 0.008 mg/body i.v.): −
- Metastatic nodules, Abdominal cavity Adrenal gland ([2]; 0.008 mg/body i.v.): −
- Metastatic nodules, Abdominal cavity Diaphragm ([2]; 0.008 mg/body i.v.): −
- Metastatic nodules, Abdominal cavity Kidney ([2]; 0.008 mg/body i.v.): −
- Metastatic nodules, Abdominal cavity Ovary ([2]; 0.008 mg/body i.v.): −
- Metastatic nodules, Abdominal cavity Spleen ([2]; 0.008 mg/body i.v.): − (5×) and +
- Metastatic nodules, Thoracic cavity ([2]; 0.008 mg/body i.v.): −
- Metastatic nodules, Tissue around glandual clitoris ([2]; 0.008 mg/body i.v.): −
- cases with metastatic nodules in the spleen [2, 5]: 1 case
- metastatic nodules in the thoracic cavity [2, 5]: no metastatic nodules were observed
- Number of lung tumor nodules, Range (mininum-maximum) ([2]; 0.008 mg/body i.v.): 0
- Number of mice having lung tumor nodules ([2]; 0.008 mg/body i.v.): 0 &&
- Number of lung tumor nodules ([2]; 0.008 mg/body i.v.): 0 ± 0
- Number of mice having metastatic lesions ([2]; 0.008 mg/body i.v.): 0 &&
- Number of metastatic lesions per section, Large size ([2]; 0.008 mg/body i.v.): 0 ± 0!!
- Number of metastatic lesions per section, Small size ([2]; 0.008 mg/body i.v.): 0 ± 0!
- Number of metastatic lesions per section, Total ([2]; 0.008 mg/body i.v.): 0 ± 0!!
- number of mice having intrapleural or intraperitoneal metastatic nodules, dose dependence (in words) ([2]; 0.001, 0.004 and 0.008 mg/body i.v.): decreased as the dose increased
- action of suppressing the lung metastasis of B16-F0 compared with cPA-5 ([2]; 0.004 and 0.008 mg/body i.v.): stronger than that of cPA-5
